# Measurements from patent US4552684A, “Dichroic dye and liquid crystalline composition for color display” (Mitsui Toatsu Chemicals, Inc., priority 1983, dated 1985).
# Experiments:
# Assay type in all cases: physicochemical
# [1] = solubility of dye in liquid crystals E-8; settings: for Solubility: in liquid crystals E-8 at 25° C.
# Experimental: This is the solubility (% by weight) of each dye in liquid crystals E-8 (made by Merck & Co.) at 25° C.
# [2] = light fastness (total current after exposure of cell to solar light for 200 hours); settings: for Light fastness: 0.5% by weight dye in E-8, solar light 200 hours, rectangular wave 6Vp-p, 32 Hz, total current
# Experimental: 0.5% by weight of each dye was dissolved in the liquid crystals E-8, and the solution was sealed into a liquid crystal wall having a gap of 10 microns and including a pair of facing transparent electrodes with an area of 1.0 cm^2. The cell was exposed to solar light for 200 hours. Then, a voltage of a rectangular wave form (6Vp-p, 32 Hz) was applied, and the total current was measured (μA/cm^2).
# [3] = dichroic ratio of dye dissolved in liquid crystals (homogeneously aligned 10 micron cell); settings: for Dichroic ratio in liquid crystals E-8: Table 1 method: 1.0% by weight dye, 10 micron gap
# Experimental: The dichroic ratio is determined as follows:
# The cell was placed in the light path of a spectro-photometer. Straight polarized light parallel to the alignment of the liquid crystals was applied to the cell, and the absorbance ([…] ) was measured. Furthermore, straight polarized light at right angles to the alignment of the liquid crystals was applied, and the absorbance ([…] ) was measured. The dichroic ratio was calculated from the following equation. [formula]
# color of dye in toluene = assay: color of dye in toluene
# [4] = maximum absorption wavelength of dye in liquid crystals
# Experimental: The crude dye was purified by the same column chromatographic technique as in Example 1 to give a blue dye having a melting point of 155° to 157° C. (Dye No.19 in Table 1). The dichroic ratio of the dye was measured in the liquid crystals E-8 in the same way as described above with regard to Table 1, and found to be 10.3 (λmax 616 nm). […] When liquid crystals ZLI-1840 were used instead of the liquid crystals E-8, the dichroic ratio of the dye was 10.8 (λmax 612 nm). When liquid crystals ZLI-1275 were used, the dichroic ratio was 10.1 (λmax 616 nm).
# [5] = dichroic ratio and maximum absorption wavelength in cyanobiphenyl/cyanoterphenyl liquid crystal mixture
# Experimental: 0.1 Part by weight of the dye No. 8 in Table 1 was dissolved in 10 parts by weight of a liquid crystal mixture composed of 43% of 4-n-pentyl-4'-cyano-biphenyl, 17% of 4-n-propoxy-4'-cyanobiphenyl, 13% of 4-n-pentoxy-4'-cyanobiphenyl, 17% of 4-n-octoxy-4'-cyanobiphenyl and 10% of 4-n-pentyl-4'-cyanoterphenyl. The resulting color liquid crystal mixture was sealed into a glass cell having a gap of 10 microns which had been subjected to homogeneous aligning treatment. The maximum absorption wavelength was 512 nm and the dichroic ratio was 10.2. A display device obtained by sealing this color liquid crystal mixture into a glass liquid crystal display element of the same structure as above including transparent electrodes assumed a red color entirely in the absence of a voltage applied, and when a voltage was applied, only the part of the electrodes became nearly colorless, thus showing a good contrast.
Structure (SMILES),Dichroic ratio in liquid crystals E-8 [3],Color in toluene (color of dye in toluene),also measured
"CN(C)c1ccc(N=Nc2ccc(N=Nc3ccccc3)cc2)cc1 [A, reference compound]",,,Solubility [1]: 1.1 % by weight; Light fastness [2]: 4.2 μA/cm^2
"CCCCc1ccc(Nc2cccc3c2C(=O)c2cccc(Nc4ccc(CCCC)cc4)c2C3=O)cc1 [B, reference compound]",,,Solubility [1]: 0.7 % by weight; Light fastness [2]: 3.6 μA/cm^2
"Nc1c2c(c(O)c3oc(C4CCCCC4)nc13)C(=O)c1ccccc1C2=O [C, reference compound]",,,Solubility [1]: 0.4 % by weight
CCCCCOC(=O)C1CCC(c2nc3cc4c(c(O)c3o2)C(=O)c2c(O)ccc(O)c2C4=O)CC1 (centres unmarked) [Dye No. 3],9.3,Orange,
CC(C)(C)c1ccc(C2CCC(c3nc4c(N)c5c(c(O)c4o3)C(=O)c3ccccc3C5=O)CC2)cc1 (centres unmarked) [Dye No. 5],10.1,Red,
CC(CCC1CCC(c2nc3c(O)c4c(c(O)c3o2)C(=O)c2ccccc2C4=O)CC1)CC(C)(C)C (centres unmarked) [Dye No. 7],8.1,Orange,
CC(C)(C)C1CCC(c2nc3cc4c(c(O)c3s2)C(=O)c2ccccc2C4=O)CC1 (centres unmarked) [Dye No. 13],7.8,Yellow,
CCCCCC1CCC(c2nc3cc4c(c(O)c3o2)C(=O)c2c(O)ccc(O)c2C4=O)CC1 (centres unmarked) [Dye No. 18],9.8,Orange,
CC(CC[C@H]1CC[C@H](c2nc3c(N)c4c(c(O)c3o2)C(=O)c2c(N)ccc(O)c2C4=O)CC1)CC(C)(C)C (some centres unmarked) [Dye No. 19],10.3,Blue,
CCCCCCCC1CCC(c2nc3cc4c(c(O)c3o2)C(=O)c2c(NC)ccc(NC)c2C4=O)CC1 (centres unmarked) [Dye No. 20],9.2,Blue,
CCCCCC1CCC(c2nc3cc4c(c(O)c3o2)C(=O)c2ccc(CC(C)C)c(O)c2C4=O)CC1 (centres unmarked) [Dye No. 21],8.1,Orange,
CC(C)(C)CC(C)(C)[C@H]1CC[C@H](c2nc3c(N)c4c(c(O)c3o2)C(=O)c2c(O)cccc2C4=O)CC1 [Dye No. 22],11.6,Reddish violet,
CCCCOC(=O)C1CCC(c2nc3c(N)c4c(c(O)c3o2)C(=O)c2c(O)cccc2C4=O)CC1 (centres unmarked) [Dye No. 23],8.2,Reddish violet,
CCCCc1ccc(OC(=O)C2CCC(c3nc4c(Cl)c5c(c(O)c4o3)C(=O)c3c(Cl)ccc(O)c3C5=O)CC2)cc1 (centres unmarked) [Dye No. 26],8.0,Orange,
CCCCc1ccc(OC(=O)C2CCC(c3nc4c(N)c5c(c(O)c4o3)C(=O)c3c(N)ccc(O)c3C5=O)CC2)cc1 (centres unmarked) [Dye No. 27],9.2,Blue,
CC(CC[C@H]1CC[C@H](c2nc3c(N)c4c(c(O)c3o2)C(=O)c2c(N)ccc(O)c2C4=O)CC1)CC(C)(C)C (some centres unmarked) [No.19],,,"λmax ([4]; liquid crystals E-8): 616 nm; λmax ([4]; liquid crystals ZLI-1275): 616 nm; λmax ([4]; liquid crystals ZLI-1840): 612 nm; solubility in E-8 ([1]; liquid crystals E-8, temperature not stated (Example 5)): 7.2 % by weight; dichroic ratio ([3]; liquid crystals ZLI-1275): 10.1; dichroic ratio ([3]; liquid crystals ZLI-1840): 10.8"
CCCCCC1CCC(c2nc3c(N)c4c(c(O)c3o2)C(=O)c2ccccc2C4=O)CC1 (centres unmarked) [No. 8],,,"Solubility [1]: 4.7 % by weight; solubility compared with known dyes A, B and C ([1]; liquid crystals E-8): higher solubility; dichroic ratio ([5]; 0.1 part dye in 10 parts cyanobiphenyl/cyanoterphenyl mixture (Example 4)): 10.2; maximum absorption wavelength ([5]; cyanobiphenyl/cyanoterphenyl mixture (Example 4)): 512 nm; Light fastness [2]: 2.0 μA/cm^2; light fastness compared with known dyes ([2]; as in Table 2): higher solubility and light fastness than known dyes A, B and C"
CC(C)(C)CC(C)(C)[C@H]1CC[C@H](c2nc3c(N)c4c(c(O)c3o2)C(=O)c2c(O)cccc2C4=O)CC1 [No. 22],,,"solubility in liquid crystals E-8 ([1]; liquid crystals E-8, temperature not stated (Example 7)): 4.0%; dichroic ratio ([3]; liquid crystals ZLI-1840): 12.3"

# The next lines start with results.
Dichroic ratio in liquid crystals E-8 [3],Color in toluene (color of dye in toluene),Structure (SMILES),also measured
9.5,Red,CCCCC1CCC(c2nc3c(N)c4c(c(O)c3o2)C(=O)c2ccccc2C4=O)CC1 (centres unmarked) [Dye No. 1],
8.2,Violet,CCCCCCCCCC1CCC(c2nc3c(N)c4c(c(O)c3o2)C(=O)c2c(N)cccc2C4=O)CC1 (centres unmarked) [Dye No. 2],
7.2,Yellow,CCCCC[C@H]1CC[C@H](c2nc3cc4c(c(O)c3o2)C(=O)c2ccccc2C4=O)CC1 [Dye No. 4],
6.8,Orange,CCCCOCCC1CCC(c2nc3c(Br)c4c(c(O)c3o2)C(=O)c2ccccc2C4=O)CC1 (centres unmarked) [Dye No. 6],
9.5,Red,CCCCCC1CCC(c2nc3c(N)c4c(c(O)c3o2)C(=O)c2ccccc2C4=O)CC1 (centres unmarked) [Dye No. 8],
9.3,Red,CCCCCCCCCCCCC1CCC(c2nc3c(N)c4c(c(O)c3o2)C(=O)c2ccccc2C4=O)CC1 (centres unmarked) [Dye No. 9],
8.1,Reddish violet,CCCCCC1CCC(c2nc3c(N)c4c(c(N)c3o2)C(=O)c2ccccc2C4=O)CC1 (centres unmarked) [Dye No. 10],
8.5,Yellow,CCCCCC1CCC(c2nc3cc4c(c(O)c3s2)C(=O)c2ccccc2C4=O)CC1 (centres unmarked) [Dye No. 11],
10.5,Blue,CCCCCCCCC1CCC(c2nc3c(N)c4c(c(O)c3o2)C(=O)c2c(N)ccc(O)c2C4=O)CC1 (centres unmarked) [Dye No. 14],
10.2,Red,CCCCCCCCCC1CCC(c2nc3c(N)c4c(c(O)c3o2)C(=O)c2cc(C)ccc2C4=O)CC1 (centres unmarked) [Dye No. 15],
8.0,Red,CCCCCCCC1CCC(c2nc3c(O)c4c(c(N)c3o2)C(=O)c2ccccc2C4=O)CC1 (centres unmarked) [Dye No. 16],
6.9,Orange,CCCCCC1CCC(c2nc3cc4c(c(NC)c3o2)C(=O)c2ccccc2C4=O)CC1 (centres unmarked) [Dye No. 17],
8.6,Reddish violet,CCCCCCCC1CCC(c2nc3c(N)c4c(c(O)c3o2)C(=O)c2ccc(C(=O)OCCCC)cc2C4=O)CC1 (centres unmarked) [Dye No. 24],
9.3,Reddish violet,CCCCCCCC1CCC(c2nc3c(N)c4c(c(N)c3o2)C(=O)c2ccc(C(=O)OCCCC)cc2C4=O)CC1 (centres unmarked) [Dye No. 25],
